# Patent US20250115598A1 (Anaxis Pharma Pty Ltd, priority 2021, published 2025)
# Columns and labels:
# [1] = biological target: human MLKL (full length) (Homo sapiens (Human), UniProt Q8NB16); assay: KINOMEscan binding assay, human MLKL (full length); settings: KINOMEscan, Table 21; read-out: Human MLKL (full-length) (KD)
# Outline: (§1)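 Compound dilutions (11 points, 3-fold, mostly from 30,000 nM, 1% DMSO final) competed with immobilized ligand for DNA- or phage-tagged protein, and bead-bound protein was measured by qPCR. Kd values came from Hill-equation fits with slope −1 (Levenberg-Marquardt).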
# [2] = biological target: human RIPK1 (Homo sapiens (Human), UniProt Q13546); assay: KINOMEscan binding assay, human RIPK1; settings: Table 21
# Outline: as §1
# [3] = biological target: human RIPK3 (Homo sapiens (Human), UniProt Q9Y572); assay: KINOMEscan binding assay, human RIPK3; settings: Table 21
# Outline: as §1
# human MLKL (full length), sequence (Q8NB16 whole entry): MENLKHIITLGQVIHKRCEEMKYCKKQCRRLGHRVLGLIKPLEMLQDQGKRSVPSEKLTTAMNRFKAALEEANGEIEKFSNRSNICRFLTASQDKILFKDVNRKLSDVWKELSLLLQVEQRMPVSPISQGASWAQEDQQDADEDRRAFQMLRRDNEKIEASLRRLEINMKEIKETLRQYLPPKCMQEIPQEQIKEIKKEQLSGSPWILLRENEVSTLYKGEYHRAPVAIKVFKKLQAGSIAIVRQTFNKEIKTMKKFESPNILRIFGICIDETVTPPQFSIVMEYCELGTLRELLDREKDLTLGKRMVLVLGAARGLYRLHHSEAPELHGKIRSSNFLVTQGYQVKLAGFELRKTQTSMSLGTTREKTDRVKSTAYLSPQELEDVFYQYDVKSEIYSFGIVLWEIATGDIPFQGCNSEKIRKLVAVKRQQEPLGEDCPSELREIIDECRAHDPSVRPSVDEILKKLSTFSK
# human RIPK1, sequence (Q13546 whole entry): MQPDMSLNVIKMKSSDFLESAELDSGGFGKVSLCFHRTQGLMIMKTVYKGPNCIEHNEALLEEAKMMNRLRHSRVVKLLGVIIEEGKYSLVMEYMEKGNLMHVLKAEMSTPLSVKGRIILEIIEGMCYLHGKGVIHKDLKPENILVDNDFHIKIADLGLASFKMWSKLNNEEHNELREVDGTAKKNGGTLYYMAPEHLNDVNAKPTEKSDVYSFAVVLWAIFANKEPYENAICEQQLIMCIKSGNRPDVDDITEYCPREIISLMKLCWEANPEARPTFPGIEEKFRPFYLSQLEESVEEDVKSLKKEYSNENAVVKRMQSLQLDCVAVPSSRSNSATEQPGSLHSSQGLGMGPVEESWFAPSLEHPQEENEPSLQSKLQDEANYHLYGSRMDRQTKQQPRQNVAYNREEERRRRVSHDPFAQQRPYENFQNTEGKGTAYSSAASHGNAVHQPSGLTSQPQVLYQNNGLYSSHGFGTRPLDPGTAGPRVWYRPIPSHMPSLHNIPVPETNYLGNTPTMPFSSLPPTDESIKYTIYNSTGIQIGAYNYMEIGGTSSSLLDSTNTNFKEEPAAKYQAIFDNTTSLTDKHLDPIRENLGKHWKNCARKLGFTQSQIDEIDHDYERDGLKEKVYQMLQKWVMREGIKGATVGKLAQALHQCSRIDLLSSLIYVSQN
# human RIPK3, sequence (Q9Y572 whole entry): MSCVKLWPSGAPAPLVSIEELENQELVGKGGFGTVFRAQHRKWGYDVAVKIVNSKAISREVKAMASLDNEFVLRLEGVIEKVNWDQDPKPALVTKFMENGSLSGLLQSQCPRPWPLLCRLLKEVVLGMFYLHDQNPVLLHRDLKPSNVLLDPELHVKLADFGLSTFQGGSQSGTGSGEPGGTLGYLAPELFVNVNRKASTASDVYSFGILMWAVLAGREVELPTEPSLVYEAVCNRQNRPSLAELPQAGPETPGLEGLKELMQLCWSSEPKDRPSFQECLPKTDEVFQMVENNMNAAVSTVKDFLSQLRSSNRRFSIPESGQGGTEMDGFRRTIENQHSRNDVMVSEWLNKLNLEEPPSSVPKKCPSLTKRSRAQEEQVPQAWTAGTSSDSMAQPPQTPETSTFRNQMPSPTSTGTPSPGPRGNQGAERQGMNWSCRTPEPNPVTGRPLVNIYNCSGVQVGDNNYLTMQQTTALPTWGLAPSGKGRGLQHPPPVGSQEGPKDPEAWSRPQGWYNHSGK
SMILES,Kd [1] [µM],Kd [2] [µM],Kd [3] [µM]
"C[C@H](Oc1cc(-c2cnn3c(-c4cnn(CCO)c4)cnc(N)c23)ccc1NS(=O)(=O)C(F)F)c1ccc(F)cc1 [Compound 37, (S)-N-(4-(4-amino-7-(1-(2-hydroxyethyl)-1H-pyrazol-4-yl)pyrazolo[1,5-a]pyrazin-3-yl)-2-(1-(4-fluorophenyl)ethoxy)phenyl)-1,1-difluoromethane-sulfonamide]",< 0.001,> 10,> 10
"CC(C)N(C)CC(C)n1cc(-c2cnc(N)c3c(-c4ccc(NS(=O)(=O)C(F)F)c(O[C@@H](C)c5ccc(F)cc5)c4)nn(C)c23)cn1 (stereo partly drawn) [Compound 101, N-(4-(4-amino-7-(1-(1-(isopropyl(methyl)amino)propan-2-yl)-1H-pyrazol-4-yl)-1-methyl-1H-pyrazolo[4,3-c]pyridin-3-yl)-2-((S)-1-(4-fluorophenyl)ethoxy)phenyl)-1,1-difluoromethanesulfonamide]",< 0.001,> 10,> 10
"C[C@H](Oc1cc(-c2nn(C)c3c(-c4cnn(CCN5CC(C)(C)C5)c4)cnc(N)c23)ccc1NS(=O)(=O)C(F)F)c1ccc(F)cc1 [Compound 75, (S)-N-(4-(4-amino-7-(1-(2-(3,3-dimethylazetidin-1-yl)ethyl)-1H-pyrazol-4-yl)-1-methyl-1H-pyrazolo[4,3-c]pyridin-3-yl)-2-(1-(4-fluorophenyl)ethoxy)phenyl)-1,1-difluoromethanesulfonamide]",< 0.001,> 10,> 10
"C[C@H](Oc1cc(-c2nn(C)c3c(-c4ccc5[nH]c(=O)n(C)c5c4)cnc(N)c23)ccc1NS(=O)(=O)C(F)F)c1ccc(F)cc1 [Compound 160, (S)-N-(4-(4-amino-1-methyl-7-(3-methyl-2-oxo-2,3-dihydro-1H-benzo[d]imidazol-5-yl)-1H-pyrazolo[4,3-c]pyridin-3-yl)-2-(1-(4-fluorophenyl)ethoxy)phenyl)-1,1-difluoromethanesulfonamide]",< 0.001,> 10,> 10
"COCC(Oc1cc(-c2nn(C)c3c(-c4cnn(C5CCOCC5)c4)cnc(N)c23)ccc1NS(=O)(=O)C(F)F)c1ccc(F)cc1 (racemic) [Compound 102, N-(4-(4-amino-1-methyl-7-(1-(tetrahydro-2H-pyran-4-yl)-1H-pyrazol-4-yl)-1H-pyrazolo[4,3-c]pyridin-3-yl)-2-(1-(4-fluorophenyl)-2-methoxyethoxy)phenyl)-1,1-difuoromethane-sulfonamide]",< 0.001,> 10,> 10
"Nc1ncc(-c2cnn(CCO)c2)c2occ(-c3ccc(NS(=O)(=O)C(F)F)c(OCc4ccc(F)cc4)c3)c12 [Compound 6, N-(4-(4-amino-7-(1-(2-hydroxyethyl)-1H-pyrazol-4-yl)furo[3,2-c]pyridin-3-yl)-2-((4-fluorobenzyl)oxy)phenyl)-1,1-difluoro-methanesulfonamide]",< 0.001,> 10,> 10
"C[C@H](Oc1cc(-c2nn(C)c3ccnc(N)c23)ccc1NS(=O)(=O)C(F)F)c1ccc(F)cc1 [Compound 17, N-(4-{4-amino-1-methyl-1H-pyrazolo[4,3-c]pyridin-3-yl}-2-[(1S)-1-(4-fluorophenyl)ethoxy]phenyl)-1,1-difluoromethanesulfonamide]",< 0.001,> 10,> 10
"Cc1cc(-c2ccc(NS(=O)(=O)C(F)F)c(OCc3ccc(F)cc3)c2)c2c(N)n[nH]c2n1 [Compound 70, N-(4-(3-Amino-6-methyl-1H-pyrazolo[3,4-b]pyridin-4-yl)-2-((4-fluorophenyl)methoxy)phenyl)-1,1-difluoromethanesulfonamide]",< 0.001,> 10,> 10
"C[C@H](Oc1cc(-c2nn(C)c3c(-c4cnn(C5CNC5)c4)cnc(N)c23)ccc1NS(=O)(=O)C(F)F)c1ccc(F)cc1 [Compound 94, (S)-N-(4-(4-amino-7-(1-(azetidin-3-yl)-1H-pyrazol-4-yl)-1-methyl-1H-pyrazolo[4,3-c]pyridin-3-yl)-2-(1-(4-fluorophenyl)ethoxy)phenyl)-1,1-difluoromethane-sulfonamide]",< 0.001,> 10,> 10
